According to US10526327B2, “Histone demethylase inhibitors” (CELGENE QUANTICEL RESEARCH, INC., priority 2013, dated 2020):

target: T1, Jarid1A (Homo sapiens, UniProt P29375); assay: Jarid1A in vitro enzyme inhibition assay (TR-FRET); format: biochemical
T1 construct: purchased BPS Bioscience 50110
T1 sequence (P29375 1-1090): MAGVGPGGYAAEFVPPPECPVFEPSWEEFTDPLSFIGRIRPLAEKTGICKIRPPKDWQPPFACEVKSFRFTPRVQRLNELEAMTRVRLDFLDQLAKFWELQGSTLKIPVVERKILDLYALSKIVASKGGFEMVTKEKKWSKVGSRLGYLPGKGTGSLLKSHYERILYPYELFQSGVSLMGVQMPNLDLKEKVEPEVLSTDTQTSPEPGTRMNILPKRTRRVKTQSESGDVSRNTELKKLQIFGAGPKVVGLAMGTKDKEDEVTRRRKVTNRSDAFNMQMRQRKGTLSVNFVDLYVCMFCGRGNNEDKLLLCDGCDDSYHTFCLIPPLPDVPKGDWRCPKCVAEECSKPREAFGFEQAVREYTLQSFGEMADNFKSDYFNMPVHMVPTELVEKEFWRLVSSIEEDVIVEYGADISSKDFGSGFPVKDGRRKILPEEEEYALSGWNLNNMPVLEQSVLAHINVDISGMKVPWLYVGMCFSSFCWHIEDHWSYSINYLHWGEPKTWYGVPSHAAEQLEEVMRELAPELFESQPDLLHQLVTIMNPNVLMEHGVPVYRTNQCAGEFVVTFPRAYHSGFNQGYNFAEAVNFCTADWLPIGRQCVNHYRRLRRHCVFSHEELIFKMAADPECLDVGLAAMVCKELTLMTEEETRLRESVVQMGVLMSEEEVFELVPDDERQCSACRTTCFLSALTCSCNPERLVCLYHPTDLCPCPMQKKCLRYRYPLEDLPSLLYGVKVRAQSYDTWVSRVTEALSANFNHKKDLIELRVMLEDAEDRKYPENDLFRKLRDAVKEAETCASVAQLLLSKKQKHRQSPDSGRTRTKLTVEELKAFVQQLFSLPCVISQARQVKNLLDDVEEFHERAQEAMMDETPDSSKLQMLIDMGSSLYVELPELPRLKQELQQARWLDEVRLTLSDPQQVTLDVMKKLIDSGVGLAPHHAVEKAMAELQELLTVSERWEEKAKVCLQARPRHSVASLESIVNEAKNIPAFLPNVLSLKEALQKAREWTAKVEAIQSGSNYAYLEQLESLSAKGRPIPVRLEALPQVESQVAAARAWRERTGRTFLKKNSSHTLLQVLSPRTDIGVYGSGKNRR
Text: This assay determines the ability of a test compound to inhibit Jarid1A, Jarid1B, and JMJD2C demethylase activity. Baculovirus expressed Jarid1A (GenBank Accession #NM_001042603, AA1-1090) was purchased from BPS Bioscience (Cat#50110). Baculovirus expressed Jarid1B (GenBank Accession #NM_006618, AA 2-751) was purchased from BPS Bioscience (Cat #50121) or custom made by MolecularThroughput. Baculovirus expressed JMJD2C (GenBank Accession #BC143571, AA 2-372) was purchased from BPS Bioscience (Cat#50105).
The enzymatic assay of Jarid1A activity is based upon Time Resolved-Fluorescence Resonance Energy Transfer (TR-FRET) detection. The ability of test compounds to inhibit the activity of Jarid1A was determined in 384-well plate format under the following reaction conditions: 1 nM Jarid1A, 300 nM H3K4me3-biotin labeled peptide (Anaspec cat #64357), 2 μM alpha-ketoglutaric acid in assay buffer of 50 mM HEPES, pH7.3, 0.005% Brij35, 0.5 mM TCEP, 0.2 mg/ml BSA, 50 μM sodium L-ascorbate, and 2 μM ammonium iron(II) sulfate. Reaction product was determined quantitatively by TR-FRET after the addition of detection reagent Phycolink Streptavidin-allophycocyanin (Prozyme) and Europium-anti-mono-or di-methylated histone H3 lysine 4 (H3K4me1-2) antibody (PerkinElmer) in the presence of 5 mM EDTA in LANCE detection buffer (PerkinElmer) at a final concentration of 25 nM and 1 nM, respectively.
The assay reaction was initiated by the following: 2 μl of the mixture of 900 nM H3K4me3-biotin labeled peptide and 6 μM alpha-ketoglutaric acid with 2 μl of 11-point serial diluted inhibitor in 3% DMSO was added to each well of plate, followed by the addition of 2 μl of 3 nM Jarid1A to initiate the reaction. The reaction mixture was incubated at room temperature for 30 minutes, and terminated by the addition of 6 μl of 5 mM EDTA in LANCE detection buffer containing 50 nM Phycolink Streptavidin-allophycocyanin and 2 nM Europium-anti-H3K4me1-2 antibody. Plates were read by EnVisionMultilabel Reader in TR-FRET mode (excitation at 320 nm, emission at 615 nm and 665 nm) after 1 hour incubation at room temperature. A ratio was calculated (665/615) for each well and fitted to determine inhibition constant (IC50).

| IC50 [µM] | Compound |
| --- | --- |
| ≤ 0.1 | OCCOc1nc(O)c2ccncc2n1 [Example 3, 2-(2-hydroxyethoxy)pyrido[3,4-d]pyrimidin-4-ol] |
| 0.1 to 1 | Oc1nc(OC2CCCC2)nc2cnccc12 [Example 6, 2-cyclopentyloxy-3H-pyrido[3,4-d]pyrimidin-4-one] |
| ≤ 0.1 | COc1nc(O)c2ccncc2n1 [Example 8, 2-methoxypyrido[3,4-d]pyrimidin-4-ol] |
| 1 to 10 | CCC(C)Oc1nc(O)c2ccncc2n1 (stereo not shown) [Example 9, 2-butan-2-yloxy-3H-pyrido[3,4-d]pyrimidin-4-one] |
| ≤ 0.1 | CC(C)(C)OC(=O)Nc1cccc(Oc2nc(O)c3ccncc3n2)c1 [Example 36, tert-butyl N-[3-(4-hydroxypyrido[3,4-d]pyrimidin-2-yl)oxyphenyl]carbamate] |
| ≤ 0.1 | COc1ccc(Oc2nc(O)c3ccncc3n2)cc1OC [Example 38, 2-(3,4-dimethoxyphenoxy)pyrido[3,4-d]pyrimidin-4-ol] |
| ≤ 0.1 | CC(C)c1cccc(Oc2nc(O)c3ccncc3n2)c1 [Example 39, 2-(3-propan-2-ylphenoxy)pyrido[3,4-d]pyrimidin-4-ol] |
| ≤ 0.1 | Oc1nc(Oc2cccc(F)c2F)nc2cnccc12 [Example 42, 2-(2,3-difluorophenoxy)pyrido[3,4-d]pyrimidin-4-ol] |
| ≤ 0.1 | COc1c(F)cc(Oc2nc(O)c3ccncc3n2)cc1F [Example 43, 2-(3,5-difluoro-4-methoxyphenoxy)pyrido[3,4-d]pyrimidin-4-ol] |
| ≤ 0.1 | Oc1nc(Oc2ccccc2F)nc2cnccc12 [Example 46, 2-(2-fluorophenoxy)pyrido[3,4-d]pyrimidin-4-ol] |
| ≤ 0.1 | CCCc1cccc(Oc2nc(O)c3ccncc3n2)c1 [Example 58, 2-(3-propylphenoxy)pyrido[3,4-d]pyrimidin-4-ol] |
| ≤ 0.1 | CN(C)c1ccc(Oc2nc(O)c3ccncc3n2)cc1 [Example 59, 2-[4-(dimethylamino)phenoxy]pyrido[3,4-d]pyrimidin-4-ol] |
| ≤ 0.1 | O=C(c1cc(F)cc(Oc2nc(O)c3ccncc3n2)c1)N1CCOCC1 [Example 60] |
| ≤ 0.1 | COCCn1ncc2ccc(Oc3nc(O)c4ccncc4n3)cc21 [Example 61, 2-{[1-(2-methoxyethyl)-1H-indazol-6-yl]oxy}pyrido[3,4-d]pyrimidin-4-ol] |
| ≤ 0.1 | CCn1cc(Oc2nc(O)c3ccncc3n2)cn1 [Example 62, 2-[(1-ethyl-1H-pyrazol-4-yl)oxy]pyrido[3,4-d]pyrimidin-4-ol] |
| ≤ 0.1 | CC(C)n1cc(Oc2nc3cnccc3c(=O)[nH]2)cn1 [Example 63, 2-{[1-(propan-2-yl)-1H-pyrazol-4-yl]oxy}pyrido[3,4-d]pyrimidin-4-ol] |
| ≤ 0.1 | COCCn1cc(Oc2nc(O)c3ccncc3n2)cn1 [Example 64, 2-{[1-(2-methoxyethyl)-1H-pyrazol-4-yl]oxy}pyrido[3,4-d]pyrimidin-4-ol] |

| IC50 [µM] | Compound |
| --- | --- |
| ≤ 0.1 | COCCCn1cc(Oc2nc(O)c3ccncc3n2)cn1 [Example 65, 2-{[1-(3-methoxypropyl)-1H-pyrazol-4-yl]oxy}pyrido[3,4-d]pyrimidin-4-ol] |
| ≤ 0.1 | Oc1nc(Oc2cnn(C3CCOCC3)c2)nc2cnccc12 [Example 67, 2-{[1-(tetrahydro-2H-pyran-4-yl)-1H-pyrazol-4-yl]oxy}pyrido[3,4-d]pyrimidin-4-ol] |
| ≤ 0.1 | COc1nc(O)c2ccnc(-c3cn(C)cn3)c2n1 [Example 68, 2-methoxy-8-(1-methyl-1H-imidazol-4-yl)pyrido[3,4-d]pyrimidin-4-ol] |
| 0.1 to 1 | CN(C)CCOc1nc(O)c2ccnc(-c3cn(C)cn3)c2n1 [Example 76, 2-[2-(dimethylamino)ethoxy]-8-(1-methylimidazol-4-yl)pyrido[3,4-d]pyrimidin-4-ol] |
| ≤ 0.1 | Cn1cnc(-c2nccc3c(O)nc(OCC(F)F)nc23)c1 [Example 77, 2-(2,2-difluoroethoxy)-8-(1-methylimidazol-4-yl)pyrido[3,4-d]pyrimidin-4-ol] |
| ≤ 0.1 | Cn1cnc(-c2nccc3c(O)nc(OCCC4CC4)nc23)c1 [Example 78, 2-(2-cyclopropylethoxy)-8-(1-methylimidazol-4-yl)pyrido[3,4-d]pyrimidin-4-ol] |
| ≤ 0.1 | Cn1cnc(-c2nccc3c(O)nc(Oc4cnn(Cc5ccccc5)c4)nc23)c1 [Example 79, 2-(1-benzylpyrazol-4-yl)oxy-8-(1-methylimidazol-4-yl)pyrido[3,4-d]pyrimidin-4-ol] |
| ≤ 0.1 | CC(C)CCn1cc(Oc2nc(O)c3ccnc(-c4cn(C)cn4)c3n2)cn1 [Example 80, 2-[1-(3-methylbutyl)pyrazol-4-yl]oxy-8-(1-methylimidazol-4-yl)pyrido[3,4-d]pyrimidin-4-ol] |
| ≤ 0.1 | Cn1cnc(-c2nccc3c(O)nc(Oc4ccc(F)c(F)c4)nc23)c1 [Example 81, 2-(3,4-difluorophenoxy)-8-(1-methylimidazol-4-yl)pyrido[3,4-d]pyrimidin-4-ol] |
| ≤ 0.1 | COCCOc1ccc(Oc2nc(O)c3ccnc(-c4cn(C)cn4)c3n2)cc1 [Example 82, 2-[4-(2-methoxyethoxy)phenoxy]-8-(1-methylimidazol-4-yl)pyrido[3,4-d]pyrimidin-4-ol] |
| ≤ 0.1 | Cn1cnc(-c2nccc3c(O)nc(Oc4ccc5cnn(C)c5c4)nc23)c1 [Example 83, 8-(1-methylimidazol-4-yl)-2-(1-methylindazol-6-yl)oxypyrido[3,4-d]pyrimidin-4-ol] |
| ≤ 0.1 | CCn1ncc2ccc(Oc3nc(O)c4ccnc(-c5cn(C)cn5)c4n3)cc21 [Example 84, 2-(1-ethylindazol-6-yl)oxy-8-(1-methylimidazol-4-yl)pyrido[3,4-d]pyrimidin-4-ol] |
| ≤ 0.1 | Cc1nn(C)c2cc(Oc3nc(O)c4ccnc(-c5cn(C)cn5)c4n3)ccc12 [Example 85, 2-(1,3-dimethylindazol-6-yl)oxy-8-(1-methylimidazol-4-yl)pyrido[3,4-d]pyrimidin-4-ol] |
| ≤ 0.1 | CC(=O)N1CCC(n2cc(Oc3nc(O)c4ccncc4n3)cn2)CC1 [Example 90, 1-[4-[4-(4-hydroxypyrido[3,4-d]pyrimidin-2-yl)oxypyrazol-1-yl]piperidin-1-yl]ethanone] |
| ≤ 0.1 | C=CC(=O)N1CCC(n2cc(Oc3nc(O)c4ccncc4n3)cn2)CC1 [Example 91, 1-[4-[4-(4-hydroxypyrido[3,4-d]pyrimidin-2-yl)oxypyrazol-1-yl]piperidin-1-yl]prop-2-en-1-one] |
| ≤ 0.1 | O=C(C1CC1)N1CCC(n2cc(Oc3nc(O)c4ccncc4n3)cn2)CC1 [Example 92, cyclopropyl-[4-[4-(4-hydroxypyrido[3,4-d]pyrimidin-2-yl)oxypyrazol-1-yl]piperidin-1-yl]methanone] |
| ≤ 0.1 | O=C(c1ccc(F)cc1)N1CCC(n2cc(Oc3nc(O)c4ccncc4n3)cn2)CC1 [Example 93, (4-fluorophenyl)-[4-[4-(4-hydroxypyrido[3,4-d]pyrimidin-2-yl)oxypyrazol-1-yl]piperidin-1-yl]methanone] |
